In PubChem BioAssay AID214 (DTP/NCI, 2004):
Where “and” joins values, the source holds several entries; their conditions need not be identical. Equal entries are not always repeated. Records with an inconclusive call do not appear.

Tested on: B6C3F1 mice, colon carcinoma 38 s.c., T/C
Test: NCI In Vivo Anticancer Drug Screen. Data for tumor model Colon Carcinoma 38 (subcutaneous) in B6C3F1 mice
Details: higher = larger tumour
Method: The antitumor activity of compounds was measured in mice bearing transplantable tumors. Survival or tumor size were measured and the results are expressed as the measurement made in the treated group (T) divided by the measurement made in the vehicle treated control group (C). The tumor model used in this assay is Colon Carcinoma 38 (subcutaneous) in B6C3F1 mice

[1] = endpoint: median tumor weight (est.), dose: 100.0 mg/kg/injection, schedule: Q07DX002 (ip), vehicle: suspension in saline
[2] = endpoint: median tumor weight (est.), dose: 25.0 mg/kg/injection, schedule: Q07DX002 (ip), vehicle: Klucel (hydroxypropylcellulose) (HPC)
[3] = endpoint: median tumor weight (est.), dose: 100.0 mg/kg/injection, schedule: Q07DX003 (ip), vehicle: saline
[4] = endpoint: median tumor weight (est.), dose: 200.0 mg/kg/injection, schedule: Q07DX003 (ip), vehicle: saline
[5] = endpoint: median tumor weight (est.), dose: 12.5 mg/kg/injection, schedule: Q07DX002 (ip), vehicle: saline with Tween-80
[6] = endpoint: median tumor weight (est.), dose: 25.0 mg/kg/injection, schedule: Q07DX002 (ip), vehicle: saline with Tween-80
[7] = endpoint: median tumor weight (est.), dose: 200.0 mg/kg/injection, schedule: Q07DX002 (ip), vehicle: saline with Tween-80
[8] = endpoint: median tumor weight (est.), dose: 50.0 mg/kg/injection, schedule: Q07DX002 (ip), vehicle: Klucel (hydroxypropylcellulose) (HPC)
[9] = endpoint: median tumor weight (est.), dose: 100.0 mg/kg/injection, schedule: Q07DX002 (ip), vehicle: Klucel (hydroxypropylcellulose) (HPC)
[10] = endpoint: median tumor weight (est.), dose: 400.0 mg/kg/injection, schedule: Q07DX002 (ip), vehicle: Klucel (hydroxypropylcellulose) (HPC)
[11] = endpoint: median tumor weight (est.), dose: 100.0 mg/kg/injection, schedule: Q07DX002 (ip), vehicle: saline with Tween-80
[12] = endpoint: median tumor weight (est.), dose: 50.0 mg/kg/injection, schedule: Q07DX002 (ip), vehicle: saline with Tween-80

O=C(O)Cc1cccc2c(=O)cc(-c3ccccc3)oc12
T/C (endpoint: median tumor weight (est.), dose: 33.0 mg/kg/injection, schedule: Q07DX002 (ip), vehicle: suspension in saline): 67 % of control | T/C (endpoint: median tumor weight (est.), dose: 63.0 mg/kg/injection, schedule: Q07DX002 (ip), vehicle: clinical formulation): 109 % of control | T/C (endpoint: median tumor weight (est.), dose: 63.0 mg/kg/injection, schedule: Q07DX002 (ip), vehicle: sodium bicarbonate): 100 % of control | T/C (endpoint: median tumor weight (est.), dose: 63.0 mg/kg/injection, schedule: Q07DX002 (iv), vehicle: clinical formulation): 114 % of control | T/C (endpoint: median tumor weight (est.), dose: 63.0 mg/kg/injection, schedule: Q07DX002 (iv), vehicle: sodium bicarbonate): 90 % of control | T/C (endpoint: median tumor weight (est.), dose: 66.0 mg/kg/injection, schedule: Q07DX002 (ip), vehicle: suspension in saline): 89 % of control | T/C (endpoint: median tumor weight (est.), dose: 84.0 mg/kg/injection, schedule: Q07DX002 (ip), vehicle: clinical formulation): 91 % of control | T/C (endpoint: median tumor weight (est.), dose: 84.0 mg/kg/injection, schedule: Q07DX002 (ip), vehicle: sodium bicarbonate): 155 % of control | T/C (endpoint: median tumor weight (est.), dose: 84.0 mg/kg/injection, schedule: Q07DX002 (iv), vehicle: clinical formulation): 67 % of control | T/C (endpoint: median tumor weight (est.), dose: 84.0 mg/kg/injection, schedule: Q07DX002 (iv), vehicle: sodium bicarbonate): 82 % of control | T/C [1]: 90 % of control | T/C (endpoint: median tumor weight (est.), dose: 112.0 mg/kg/injection, schedule: Q07DX002 (ip), vehicle: clinical formulation): 95 % of control | T/C (endpoint: median tumor weight (est.), dose: 112.0 mg/kg/injection, schedule: Q07DX002 (iv), vehicle: clinical formulation): 74 % of control | T/C (endpoint: median tumor weight (est.), dose: 112.0 mg/kg/injection, schedule: Q07DX002 (iv), vehicle: sodium bicarbonate): 84 % of control and 102 % of control | T/C (endpoint: median tumor weight (est.), dose: 128.0 mg/kg/injection, schedule: Q07DX002 (ip), vehicle: water): 79 % of control | T/C (endpoint: median tumor weight (est.), dose: 150.0 mg/kg/injection, schedule: Q07DX002 (ip), vehicle: clinical formulation): 14 % of control | T/C (endpoint: median tumor weight (est.), dose: 150.0 mg/kg/injection, schedule: Q07DX002 (ip), vehicle: sodium bicarbonate): 101 % of control | T/C (endpoint: median tumor weight (est.), dose: 150.0 mg/kg/injection, schedule: Q07DX002 (ip), vehicle: suspension in saline): 10 % of control | T/C (endpoint: median tumor weight (est.), dose: 150.0 mg/kg/injection, schedule: Q07DX002 (iv), vehicle: clinical formulation): 47 % of control | T/C (endpoint: median tumor weight (est.), dose: 150.0 mg/kg/injection, schedule: Q07DX002 (iv), vehicle: sodium bicarbonate): 57 % of control | T/C (endpoint: median tumor weight (est.), dose: 160.0 mg/kg/injection, schedule: Q07DX002 (ip), vehicle: water): 81 % of control | T/C (endpoint: median tumor weight (est.), dose: 200.0 mg/kg/injection, schedule: Q07DX002 (ip), vehicle: sodium bicarbonate): 79 % of control and 87 % of control | T/C (endpoint: median tumor weight (est.), dose: 200.0 mg/kg/injection, schedule: Q07DX002 (ip), vehicle: water): 25 % of control | T/C (endpoint: median tumor weight (est.), dose: 250.0 mg/kg/injection, schedule: Q07DX002 (ip), vehicle: water): 13 % of control | T/C (endpoint: median tumor weight (est.), dose: 267.0 mg/kg/injection, schedule: Q07DX002 (iv), vehicle: sodium bicarbonate): 77 % of control | T/C (endpoint: median tumor weight (est.), dose: 356.0 mg/kg/injection, schedule: Q07DX002 (iv), vehicle: sodium bicarbonate): 77 % of control | T/C (endpoint: optimum tumor weight change, dose: 128.0 mg/kg/injection, schedule: Q07DX002 (ip), vehicle: water): 78 % of control | T/C (endpoint: optimum tumor weight change, dose: 160.0 mg/kg/injection, schedule: Q07DX002 (ip), vehicle: water): 50 % of control | T/C (endpoint: optimum tumor weight change, dose: 200.0 mg/kg/injection, schedule: Q07DX002 (ip), vehicle: water): 72 % of control | T/C (endpoint: optimum tumor weight change, dose: 250.0 mg/kg/injection, schedule: Q07DX002 (ip), vehicle: water): 20 % of control

CCC(C(=O)O)C(=O)O.[NH2-].[NH2-].[Pt+2]
T/C (endpoint: median tumor weight (est.), dose: 50.0 mg/kg/injection, schedule: Q07DX002 (ip), vehicle: suspension in saline): 61 % of control | T/C [1]: 45 % of control | T/C (endpoint: median tumor weight (est.), dose: 200.0 mg/kg/injection, schedule: Q07DX002 (ip), vehicle: saline): 62 % of control

N=C(N)CCCCCCCCC(=N)N
T/C (endpoint: median tumor weight (est.), dose: 6.25 mg/kg/injection, schedule: Q07DX002 (ip), vehicle: Klucel (hydroxypropylcellulose) (HPC)): 169 % of control | T/C (endpoint: median tumor weight (est.), dose: 12.5 mg/kg/injection, schedule: Q07DX002 (ip), vehicle: Klucel (hydroxypropylcellulose) (HPC)): 109 % of control | T/C [2]: 109 % of control

NC1(C(=O)O)CCCC1
T/C (endpoint: median tumor weight (est.), dose: 50.0 mg/kg/injection, schedule: Q07DX003 (ip), vehicle: saline): 69 % of control | T/C [3]: 81 % of control | T/C [4]: 39 % of control

CO[C@H]1C[C@](C)(O)Cc2cc3c(c(O)c21)C(=O)c1c(O)cc2c(c1C3=O)O[C@@H]1O[C@@]2(C)[C@H](O)[C@@H](N(C)C)[C@@H]1O
T/C (endpoint: median tumor weight (est.), dose: 12.5 mg/kg/injection, schedule: Q07DX002 (ip), vehicle: other): 124 % of control | T/C (endpoint: median tumor weight (est.), dose: 25.0 mg/kg/injection, schedule: Q07DX002 (ip), vehicle: other): 102 % of control | T/C (endpoint: median tumor weight (est.), dose: 50.0 mg/kg/injection, schedule: Q07DX002 (ip), vehicle: other): 56 % of control | T/C (endpoint: median tumor weight (est.), dose: 100.0 mg/kg/injection, schedule: Q07DX002 (ip), vehicle: other): 19 % of control

N=c1ccn2c(n1)OC1C(O)C(CO)OC12 (centres undefined)
T/C [3]: 90 % of control | T/C [4]: 98 % of control | T/C (endpoint: median tumor weight (est.), dose: 400.0 mg/kg/injection, schedule: Q07DX003 (ip), vehicle: saline): 92 % of control | T/C (endpoint: median tumor weight (est.), dose: 800.0 mg/kg/injection, schedule: Q07DX003 (ip), vehicle: saline): 61 % of control | T/C (endpoint: median tumor weight (est.), dose: 1600.0 mg/kg/injection, schedule: Q07DX003 (ip), vehicle: saline): 40 % of control

O=C(CCCCCCC(=O)ON1C(=O)CCC1=O)ON1C(=O)CCC1=O
T/C [5]: 74 % of control | T/C [6]: 69 % of control | T/C [7]: 108 % of control

CC(C)CCC(=O)c1ccoc1
T/C (endpoint: median tumor weight (est.), dose: 0.25 mg/kg/injection, schedule: Q03HX006 (ip), vehicle: saline with Tween-80): 56 % of control | T/C (endpoint: median tumor weight (est.), dose: 0.5 mg/kg/injection, schedule: Q03HX006 (ip), vehicle: saline with Tween-80): 56 % of control | T/C (endpoint: median tumor weight (est.), dose: 1.0 mg/kg/injection, schedule: Q03HX006 (ip), vehicle: saline with Tween-80): 81 % of control | T/C (endpoint: median tumor weight (est.), dose: 2.0 mg/kg/injection, schedule: Q03HX006 (ip), vehicle: saline with Tween-80): 87 % of control

Cc1ccc(NCCN(C)C)c2c(=O)c3cc(O)ccc3sc12
T/C [2]: 86 % of control | T/C [8]: 90 % of control and 210 % of control | T/C [9]: 67 % of control | T/C [10]: 48 % of control

CN(C)C1C(=O)C(C(=O)NP(=O)(NCCCO)N(CCCl)CCCl)=C(O)C2(O)C(=O)C3=C(O)c4c(O)cccc4C(C)(O)C3CC12 (centres undefined)
T/C [11]: 176 % of control | T/C [7]: 42 % of control

Nc1nc(N)c2c(ccc3c2ccn3Cc2cccc([N+](=O)[O-])c2)n1
T/C (endpoint: median tumor weight (est.), dose: 3.13 mg/kg/injection, schedule: Q07DX002 (ip), vehicle: saline with Tween-80): 61 % of control | T/C (endpoint: median tumor weight (est.), dose: 6.25 mg/kg/injection, schedule: Q07DX002 (ip), vehicle: saline with Tween-80): 102 % of control | T/C [5]: 85 % of control | T/C [6]: 57 % of control | T/C [12]: 12 % of control

COc1ccc(S(=O)(=O)N=N/C=C2\C=CC=CN2O)cc1OC
T/C [12]: 175 % of control | T/C [11]: 91 % of control | T/C [7]: 166 % of control

O=C1CC2(C(=O)N1CN1CCOCC1)c1ccccc1-c1ccccc12
T/C [8]: 99 % of control | T/C [9]: 44 % of control | T/C (endpoint: median tumor weight (est.), dose: 200.0 mg/kg/injection, schedule: Q07DX002 (ip), vehicle: Klucel (hydroxypropylcellulose) (HPC)): 107 % of control | T/C [10]: 79 % of control | T/C (endpoint: median tumor weight (est.), dose: 800.0 mg/kg/injection, schedule: Q07DX002 (ip), vehicle: Klucel (hydroxypropylcellulose) (HPC)): 56 % of control
